Source: patent US20050197350A1, “Novel quinoline, tetrahydroquinazoline, and pyrimidine derivatives and methods of treatment related to the use thereof” (TAISHO PHARMACEUTICAL CO., LTD., priority 2003, published 2005)

What follows are molecules tested on MCH receptors (assay: MCH receptor activity class (method not given)). Conditions: MCH receptor; class by percent of control at 10^-7 M or IC50.

| Structure (SMILES) | class |
| --- | --- |
| Cc1ccc(C(=O)N[C@H]2CC[C@@H](Nc3cc(N(C)C)c4ccccc4n3)CC2)cc1 [compound 51] | 3 (Class 3 The value of percent of control at 10^−7 M was more than 60% or the value of IC50 was more than 200 nM.) |
| CN(C)c1cc(N[C@H]2CC[C@@H](NC(=O)c3cccs3)CC2)nc2ccccc12 [compound 52] | 3 (Class 3 The value of percent of control at 10^−7 M was more than 60% or the value of IC50 was more than 200 nM.) |
| CN(C)c1cc(N[C@H]2CC[C@@H](NC(=O)Cc3cccs3)CC2)nc2ccccc12 [compound 53] | 3 (Class 3 The value of percent of control at 10^−7 M was more than 60% or the value of IC50 was more than 200 nM.) |
| CN(C)c1cc(N[C@H]2CC[C@@H](NC(=O)c3cccc(OC(F)(F)F)c3)CC2)nc2ccccc12 [compound 54, N-(cis-4-{[4-(dimethylamino)quinolin-2-yl]amino}cyclohexyl)-3-(trifluoromethoxy)benzamide] | 2 (Class 2: The value of percent of control at 10^−7 M was from 40% to 60% or the value of IC′50 was from 50 nM to 200 nM.) |
| CN(C)c1cc(N[C@H]2CC[C@@H](NC(=O)OCc3ccccc3)CC2)nc2ccccc12 [compound 55] | 3 (Class 3 The value of percent of control at 10^−7 M was more than 60% or the value of IC50 was more than 200 nM.) |
| CN(C)c1cc(N[C@H]2CC[C@@H](NC(=O)OCc3ccc([N+](=O)[O-])cc3)CC2)nc2ccccc12 [compound 56] | 3 (Class 3 The value of percent of control at 10^−7 M was more than 60% or the value of IC50 was more than 200 nM.) |
| Cc1cc(C(=O)N[C@H]2CC[C@@H](Nc3cc(N(C)C)c4ccccc4n3)CC2)ccc1Br [compound 57, 4-bromo-N-(cis-4-{[4-(dimethylamino)quinolin-2-yl]amino}cyclohexyl)-3-methylbenzamide] | 1 (Class 1: The value of percent of control at 10^−7 M was less than 40% or the value of IC50 was less than 50 nM.) |
| CN(C)c1cc(N[C@H]2CC[C@@H](NC(=O)c3cccc(I)c3)CC2)nc2ccccc12 [compound 58, N-(cis-4-{[4-(dimethylamino)quinolin-2-yl]amino}cyclohexyl)-3-iodobenzamide] | 2 (Class 2: The value of percent of control at 10^−7 M was from 40% to 60% or the value of IC′50 was from 50 nM to 200 nM.) |
| CN(C)c1cc(N[C@H]2CC[C@@H](NC(=O)c3cccc(Cl)c3F)CC2)nc2ccccc12 [compound 59] | 3 (Class 3 The value of percent of control at 10^−7 M was more than 60% or the value of IC50 was more than 200 nM.) |
| Cc1ccc(C(=O)N[C@H]2CC[C@@H](Nc3cc(N(C)C)c4ccccc4n3)CC2)c(F)c1F [compound 60] | 3 (Class 3 The value of percent of control at 10^−7 M was more than 60% or the value of IC50 was more than 200 nM.) |
| CN(C)c1cc(N[C@H]2CC[C@@H](NC(=O)c3ccc(F)cc3Cl)CC2)nc2ccccc12 [compound 61] | 3 (Class 3 The value of percent of control at 10^−7 M was more than 60% or the value of IC50 was more than 200 nM.) |
| CN(C)c1cc(N[C@H]2CC[C@@H](NC(=O)c3ccc(F)c(Cl)c3F)CC2)nc2ccccc12 [compound 62, 3-chloro-N-(cis-4-{[4-(dimethylamino)quinolin-2-yl]amino}cyclohexyl)-2,4-difluorobenzamide] | 2 (Class 2: The value of percent of control at 10^−7 M was from 40% to 60% or the value of IC′50 was from 50 nM to 200 nM.) |
| CN(C)c1cc(N[C@H]2CC[C@@H](NC(=O)CSc3ccccc3)CC2)nc2ccccc12 [compound 63] | 3 (Class 3 The value of percent of control at 10^−7 M was more than 60% or the value of IC50 was more than 200 nM.) |
| CN(C)c1cc(N[C@H]2CC[C@@H](NC(=O)c3cccc(C(F)(F)F)c3F)CC2)nc2ccccc12 [compound 64] | 3 (Class 3 The value of percent of control at 10^−7 M was more than 60% or the value of IC50 was more than 200 nM.) |
| CN(C)c1cc(N[C@H]2CC[C@@H](NC(=O)c3cc(C(F)(F)F)ccc3F)CC2)nc2ccccc12 [compound 65] | 3 (Class 3 The value of percent of control at 10^−7 M was more than 60% or the value of IC50 was more than 200 nM.) |
